Data published in patent US9271978B2 (Zenith Epigenetics Corp., priority 2012, dated 2016).

Experiments:
hMCP-1 mRNA = assay: Inhibition of hMCP-1 mRNA transcription in human peripheral blood mononuclear cells; assay type: cell-based; set-up: key: Active: Compounds with an IC50 value less than 30 μM were deemed to be active.; Not Active: Compounds with an IC50 value less than 30 μM were deemed to be active; conditions: 3 h
Description: In this example, hMCP-1 mRNA in human peripheral blood mononuclear cells was quantitated to measure the transcriptional inhibition of hMCP-1 when treated with a compound of the present disclosure.
Human Peripheral Blood Mononuclear Cells were plated (1.0×10^5 cells per well) in a 96-well plate in 45 μL RPMI-1640 containing 10% FBS and penicillin/streptomycin. The cells were treated with the test compound (45 μL at 2× concentration), and then the cells were incubated at 37° C. for 3 h before the cells were harvested. At time of harvest, cells were transferred to V-bottom plates and centrifuged (800 rpm, 5 min). Spent media was removed and cell lysis solution (70 μL) was added the cells in each well and incubated for 5-10 min at room temperature, to allow for complete cell lysis and detachment. mRNA was then prepared using the “mRNA Catcher PLUS plate” (Invitrogen), according to the protocol supplied. After the last wash, as much wash buffer as possible was aspirated without allowing the wells to dry. Elution buffer (E3, 70 μL) was then added to each well. mRNA was then eluted by incubating the mRNA Catcher PLUS plate with Elution Buffer for 5 min at 68° C. and then immediately placing the plate on ice.
(§1) The eluted mRNA isolated was then used in a one-step quantitative real-time PCR reaction, using components of the Ultra Sense Kit together with Applied Biosystems primer-probe mixes. Real-time PCR data was analyzed, normalizing the Ct values for hMCP-1 to an internal control, prior to determining the fold induction of each unknown sample, relative to the control.

ApoA-I mRNA = assay: Up-regulation of hApoA-1 mRNA transcription in Huh7 cells; assay type: cell-based, human; set-up: key: Active: Compounds with an EC170 value less than 30 μM were deemed to be active; conditions: 48 h treatment, ApoA-I mRNA by real-time PCR, Active = EC170 less than 30 μM
How it was run: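 Huh7 cells treated with compound for 48 h. ApoA-I mRNA was then quantified in captured mRNA by one-step real-time RT-PCR. Fold induction calculated from Ct values relative to the matching DMSO control; EC170 is the concentration for 170% of control expression.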

hIL-17 mRNA = assay: Inhibition of hIL-17 mRNA transcription in human peripheral blood mononuclear cells; assay type: cell-based; set-up: key: Active: Compounds with an IC50 value less than 30 μM were deemed to be active.; Not Active: Compounds with an IC50 value less than 30 μM were deemed to be active; conditions: OKT3 antibody stimulation
Description: In this example, hIL-17 mRNA in human peripheral blood mononuclear cells was quantitated to measure the transcriptional inhibition of hIL-17 when treated with a compound of the invention.
Human peripheral blood mononuclear cells were plated (2.0×10^5 cells per well) in a 96-well plate in 45 μL OpTimizer T Cell expansion media containing 20 ng/ml IL-2 and penicillin/streptomycin. The cells were treated with the test compound (45 μL. at 2× concentration), and then the cells were incubated at 37° C. for 1 h before addition of 10× stock OKT3 antibody at 10 ug/ml in media. Cells were incubated at 37° C. for 3 h before the cells were harvested. At time of harvest, cells were centrifuged (800 rpm, 5 min). Spent media was removed and cell lysis solution (70 μL) was added the cells in each well and incubated for 5-10 min at room temperature, to allow for complete cell lysis and detachment. mRNA was then prepared using the “mRNA Catcher PLUS plate” (Invitrogen), according to the protocol supplied. After the last wash, as much wash buffer as possible was aspirated without allowing the wells to dry. Elution buffer (E3, 70 μL) was then added to each well. mRNA was then eluted by incubating the mRNA Catcher PLUS plate with Elution Buffer for 5 min at 68° C. and then immediately placing the plate on ice.
as §1, with “hIL-17” for “hMCP-1”

Cc1noc(C)c1-c1ccc(=O)n(Cc2ccc(Cl)cc2)c1 [Example 128, 1-(4-Chlorobenzyl)-5-(3,5-dimethylisoxazol-4-yl)pyridin-2(1H)-one]
MCP-1 activity (IC50 < 30 μM) (hMCP-1 mRNA): Active | ApoA-1 activity (EC170 <30 μM) (ApoA-I mRNA): Active | IL-17 activity (IC50 < 30 μM) (hIL-17 mRNA): Active

Cc1noc(C)c1-c1cc(N)c(=O)n(Cc2ccsc2)c1 [Example 219, 3-amino-5-(3,5-dimethylisoxazol-4-yl)-1-(thiophen-3-ylmethyl)pyridin-2(1H)-one]
ApoA-1 activity (EC170 <30 μM) (ApoA-I mRNA): Active | IL-17 activity (IC50 < 30 μM) (hIL-17 mRNA): Active

Cc1noc(C)c1-c1cc(N)c(=O)n(Cc2ccc(F)cc2)c1 [Example 180, 3-amino-5-(3,5-dimethylisoxazol-4-yl)-1-(4-fluorobenzyl)pyridin-2(1H)-one]
ApoA-1 activity (EC170 <30 μM) (ApoA-I mRNA): Active | IL-17 activity (IC50 < 30 μM) (hIL-17 mRNA): Active

Cc1noc(C)c1-c1ccc(=O)n(Cc2ccccc2)c1 [Example 56, 1-Benzyl-5-(3,5-dimethylisoxazol-4-yl)pyridin-2(1H)-one]
MCP-1 activity (IC50 < 30 μM) (hMCP-1 mRNA): Active | ApoA-1 activity (EC170 <30 μM) (ApoA-I mRNA): Active

Cc1noc(C)c1-c1cc(N)c(=O)n(Cc2ccc(Br)cc2)c1 [Example 241, 3-Amino-1-(4-bromobenzyl)-5-(3,5-dimethylisoxazol-4-yl)pyridin-2(1H)-one]
ApoA-1 activity (EC170 <30 μM) (ApoA-I mRNA): Active | IL-17 activity (IC50 < 30 μM) (hIL-17 mRNA): Active

Cc1noc(C)c1-c1cc(N)c(=O)n(Cc2ccccc2)c1 [Example 73, 3-Amino-1-benzyl-5-(3,5-dimethylisoxazol-4-yl)pyridin-2(1H)-one]
MCP-1 activity (IC50 < 30 μM) (hMCP-1 mRNA): Active | ApoA-1 activity (EC170 <30 μM) (ApoA-I mRNA): Active

Cc1noc(C)c1-c1ccc(=O)n([C@H](C)c2ccccc2)c1 [Example 134, (R)-5-(3,5-Dimethylisoxazol-4-yl)-1-(1-phenylethyl)pyridin-2(1H)-one]
MCP-1 activity (IC50 < 30 μM) (hMCP-1 mRNA): Active | ApoA-1 activity (EC170 <30 μM) (ApoA-I mRNA): Active
